Data on six compounds can be found in US9149426B2, “Nanoparticle composition and methods to make and use the same” (priority 2012, dated 2015).

One data set has as its system Xenopus laevis frogs. Nature of the data set: Effective dose in in vitro studies using frogs.
For another data set, the system named is HEK-293 cells. Nature of the data set: In vitro cytotoxicity, MTT assay. The following applies: 1% Triton-X 100, 80 μM H2O2, 48 h.
Data set [1] in a line: Solubility of organic phase solvents in water or poly(ortho ester) polymer.
For data set [2] the following is noted: at 25° C.; cited from earlier work.

Description for HEK-293 cells: The amount of lactic acid release was quantified by using lactate assay kit (BioVision Inc., Milpitas, Calif.) following manufacturer's specifications. […] Forty microliters of MTT reagent (5 mg/ml in phosphate buffered saline) was added to each well. After 2 h of incubation at 37° C., 200 μl of dimethylsulfoxide (DMSO) was added to each well to dissolve the formazan crystals. After 5 minutes, the optical absorbance was measured at 570 nm and converted to percent viability relative to control (untreated) cells. All samples were tested in quadruplicate.
One hundred microliters of diluted nanoparticles (0.1, 0.2, 0.3, 0.4, 0.5, 0.6, and 1 mg/ml) stock solution was added to each well and incubated with the cells for 48 h, and then replaced with growth medium (160 μl). MTT reagent (40 μl) was added to each well to form formazan. After 2 h of incubation at 37° C., 200 μl of dimethylsulfoxide (DMSO) was added to each well to dissolve the formazan crystals. After 5 m optical absorbance was measured at 570 nm and converted to percent viability relative to control (untreated) cells (n=4).

Consider “asialo, galactosylated, triantennary (NA3) oligosaccharides”, for which, in the data set with Xenopus laevis frogs, the “Effective dose in vitro” value was 1 nM. As to `OO` [H2O2], the “Cell viability of positive controls” value in the data set on HEK-293 cells stood at 8%. On the same count and under the same terms, in the case of Triton-X 100 it was 5%. With `ClCCl` [Dichloromethane], the “Solubility of POE (poly(ortho ester) polymer) in the organic phase solvent” value in data set [1] was “Excellent solvent”. Further, the Solubility in water result in data set [2] was “Immiscible (1.6% (w/w)”. On to `CC(C)=O` [Acetone], for which the “Solubility of POE (poly(ortho ester) polymer) in the organic phase solvent” value in data set [1] is listed as “Immiscible”. Also, the Solubility in water entry in data set [2] is reported as “Very soluble”. Take `CCOC(C)=O` [Ethyl acetate]: the Solubility in water result in data set [2] is given as “(8.7% (w/w)”.
